In US20070010548A1, “Compounds having inhibitive activity of phosphatidylinositol 3-kinase and methods of use thereof” (ZENTARIS GmbH, priority 2003, published 2007):
Read-outs that look alike come from different tables or passages of the source.

Tests used:
PI 3-K alpha = biological target: T1, PI 3-K alpha (Homo sapiens, UniProt P42336); experiment: PI 3-K activity assay, IC50 determination (AlphaScreen luminescent or Fluorescence Polarization); format: biochemical; settings: inhibition of enzyme activity in vitro
T1 construct: made in house; host or cells: Sf9 cells, baculovirus expression system; constructs from the lab of Dr. Alex Toker, Harvard University
T1 sequence (P42336 whole entry, species assumed): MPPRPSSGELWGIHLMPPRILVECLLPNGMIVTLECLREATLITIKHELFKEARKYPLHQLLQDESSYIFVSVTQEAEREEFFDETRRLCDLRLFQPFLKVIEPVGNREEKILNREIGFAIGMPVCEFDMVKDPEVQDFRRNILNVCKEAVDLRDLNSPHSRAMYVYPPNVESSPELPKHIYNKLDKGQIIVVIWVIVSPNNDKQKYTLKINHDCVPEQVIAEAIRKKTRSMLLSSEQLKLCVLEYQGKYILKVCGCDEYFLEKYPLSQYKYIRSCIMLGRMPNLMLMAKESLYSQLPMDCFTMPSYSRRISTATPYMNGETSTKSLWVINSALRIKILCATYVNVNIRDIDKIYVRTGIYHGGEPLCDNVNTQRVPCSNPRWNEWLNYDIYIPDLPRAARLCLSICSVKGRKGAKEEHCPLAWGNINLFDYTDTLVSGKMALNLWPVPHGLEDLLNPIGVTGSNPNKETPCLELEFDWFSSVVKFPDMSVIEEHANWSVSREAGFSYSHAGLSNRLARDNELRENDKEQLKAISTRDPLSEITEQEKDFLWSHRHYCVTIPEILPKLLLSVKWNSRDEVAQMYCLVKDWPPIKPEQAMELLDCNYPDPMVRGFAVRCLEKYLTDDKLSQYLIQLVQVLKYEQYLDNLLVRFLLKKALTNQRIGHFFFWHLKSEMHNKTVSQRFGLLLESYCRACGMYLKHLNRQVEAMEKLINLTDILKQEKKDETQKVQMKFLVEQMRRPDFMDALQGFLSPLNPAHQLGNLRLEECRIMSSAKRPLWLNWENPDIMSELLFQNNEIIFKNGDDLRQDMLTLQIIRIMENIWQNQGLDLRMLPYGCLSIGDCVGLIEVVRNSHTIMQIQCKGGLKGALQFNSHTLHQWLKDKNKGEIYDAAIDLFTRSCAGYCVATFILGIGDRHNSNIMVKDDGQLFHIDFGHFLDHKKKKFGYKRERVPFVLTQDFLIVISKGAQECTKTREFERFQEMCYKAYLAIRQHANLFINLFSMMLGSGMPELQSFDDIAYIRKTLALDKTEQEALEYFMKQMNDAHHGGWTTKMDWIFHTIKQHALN
T1 sequence (P27986 whole entry partner, species assumed): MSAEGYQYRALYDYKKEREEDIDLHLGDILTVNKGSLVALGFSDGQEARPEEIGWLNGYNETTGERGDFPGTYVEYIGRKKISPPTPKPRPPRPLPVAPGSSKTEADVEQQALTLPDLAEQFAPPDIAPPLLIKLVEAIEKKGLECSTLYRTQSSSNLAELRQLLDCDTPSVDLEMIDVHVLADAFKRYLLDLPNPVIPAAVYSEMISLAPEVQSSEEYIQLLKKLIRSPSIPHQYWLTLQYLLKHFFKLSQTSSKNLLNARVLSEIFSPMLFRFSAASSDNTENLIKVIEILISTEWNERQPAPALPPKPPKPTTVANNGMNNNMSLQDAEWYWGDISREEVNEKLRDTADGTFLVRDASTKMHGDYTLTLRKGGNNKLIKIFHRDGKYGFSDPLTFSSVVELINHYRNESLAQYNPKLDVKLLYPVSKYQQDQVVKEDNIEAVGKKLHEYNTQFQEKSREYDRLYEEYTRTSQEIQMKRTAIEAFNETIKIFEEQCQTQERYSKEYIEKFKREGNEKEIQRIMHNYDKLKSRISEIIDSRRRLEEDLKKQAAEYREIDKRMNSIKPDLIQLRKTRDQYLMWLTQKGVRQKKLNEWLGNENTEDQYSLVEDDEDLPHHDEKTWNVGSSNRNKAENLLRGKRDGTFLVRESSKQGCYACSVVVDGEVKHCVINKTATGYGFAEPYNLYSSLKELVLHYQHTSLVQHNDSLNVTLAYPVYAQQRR
Description: Recombinant heterodimeric PI 3-K alpha, consisting of a p110 catalytic subunit and a GST-tagged p85 regulatory subunit, was expressed in Sf9 cells using a baculoviras expression system. Expression constructs were obtained from the lab of Dr. Alex Toker, Harvard University. The method is well known to those skilled in the art and is also described in Stoyanov et al., Science 269, 690-693 (1995).and Stoyanova et al., Biochem. J. 324 :489-495. (1997).
PI 3-kinase reactions were performed in a reaction buffer containing 5 mM HEPES, pH 7, 2.5 mM MgCl2, and 25 μM ATP, containing 50 ng of recombinant PI 3-K with 10 picomoles of diC8 PI(4,5)P2 (Echelon Biosciences) as the substrate. The reactions were allowed to proceed at room temperature for 1-3 hours, then quenched by the addition of EDTA to a final concentration of 10 mM. The final reaction volumes were 10 μl. The compounds to be tested for inhibition were added to a final concentration of 1 μM from stocks in DMSO. The final concentration of DMSO was 1%.
Conversion of the substrate to PI(3,4,5)P3 was determined using a competition assay using Amplified Luminescent Proximity Homogeneous Assay (ALPHA®) technology developed by Perkin Elmer. 0.25 picomoles of recombinant GST-Grp1-PH domain protein and 0.25 picomoles of biotinylated diC6 PI(3,4,5)P3 (Echelon Biosciences) were added to each reaction mixture. Donor and Acceptor beads from the AlphaScreen® GST (Glutathione-S-Transferase) Detection Kit (PerkinElmer) were added to a final concentration of 20 μg/ml. The final volume was 25 μl. The reactions were incubated at 37° C. for two hours, and the luminescent signal was read on a Fusion α microplate reader. Percent inhibition of enzyme activity was determined by comparison to no enzyme (100% inhibition) and DMSO alone (0% inhibition) controls.
An alternate method used for detecting substrate conversion to PI(3,4,5)P3 was a competitive Fluorescence Polarization assay. 125 picomoles of recombinant GST-Grp1-PH domain protein and 0.25 picomoles of TAMRA-I(1,3,4,5)P4 (Echelon Biosciences) were added to each reaction mixture The final volume was 25 μl. Polarization values were measured on a microplate reader using 550 nm excitation/580 nm polarizing emission filters. BODIPY-TMR-I(1,3,4,5)P4 or BODIPY-TMR-PI(3,4,5)P3 could substitute as the fluorescent tracers in this assay. Percent inhibition of enzyme activity was determined by comparison to no enzyme (100% inhibition) and DMSO alone (0% inhibition) controls.
A library of potential PI 3-K inhibitors was tested for activity against PI 3-K alpha in the following manner. From the active compounds identified, twelve were selected as representatives from different chemical groups present in the library and subjected to further analysis. IC50 values were determined for the selected compounds of the present invention. Enzyme activity assays were performed as previously described, in the presence of a range of compound concentrations to allow determination of IC50 values. Enzyme activity and percent inhibition was determined using the AlphaScreen® luminescent assay or a Fluorescence Polarization assay as previously described. These inhibitors may also show activity against other PI 3-K isoforms, including PI 3-K beta, gamma, and delta.

[1] = test system: tumor cells altered in PI 3-K/PTEN; experiment: Cellular growth inhibition assays on tumor cells altered in PI 3-K/PTEN; format: cell-based; settings: for IC50: approximate, read-out: Approx. mIC50 in cellular assays
Description: (§1) The ovarian cancer cell line SKOV3 is not altered in PI 3-K signaling and should be less sensitive to the anti-proliferative effects produced by treatment with PI 3-K inhibitors, while the OVCAR3 cell line, which is altered in PI 3-K signaling, via amplification of PI 3-K activity, should be sensitive. SKOV3 cells were seeded in 96-well cell culture plates (Greiner) at a density of 20,000 cells per well in McCoys 5A media (GibcoBRL) with 10% fetal calf serum and 20 mM L-glutamine. OVCAR3 cells were seeded at a density of 15,000 cells per well in RPMI 1640 media (GibcoBRL) containing 20 mM 1-glutamine, 0.01 ng/ml bovine insulin, 10 mM Hepes pH 7.4, 1 mM sodium pyruvate, 2.5 g/L glucose, and 20% fetal calf serum. After 24 hours, compounds were added to cell media to a final concentration of 1 μM, and the cells were grown in the presence of the compounds for 48 hours, in media containing 0.5% fetal calf serum. Viability was determined using a MTT cell proliferation assay (R and D Systems) and comparison to DMSO alone controls (100% viability). Compounds which result in reduced viability may act either by inhibiting cell proliferation or by inducing apoptosis (programmed cell death).
Selected compounds were evaluated against paired ovarian cancer cell lines at a range of concentrations to determine effective concentrations for growth inhibition.
MDA-MB-468 and MDA-MB-231 cells were seeded in 96-well cell culture plates (Greiner) at a density of 20,000 cells per well in RMPI media (GibcoBRL) with 10% fetal calf serum and 20 mM L-glutamine. After 24 hours, compounds were added to cell media to a final concentrations ranging from 10 nM to 100 μM, and the cells were grown in the presence of the compounds for 48 hours in RMPI media containing 0.5% fetal calf serum and 20 mM L-glutamine. Viability was determined using a MTT cell proliferation assay (R and D Systems) and comparison to DMSO alone controls (100% viability). Compounds which result in reduced viability may act either by inhibiting cell proliferation or by inducing apoptosis (programmed cell death). […] Selected compounds were evaluated against the paired breast cancer cell lines at a range of concentrations to determine effective concentrations for growth inhibition.
Table 3 summarizes the data for several compounds of this structural group, including the IC50 for inhibition of enzyme activity in vitro, cellular mIC50 and anti-proliferative activity against tumor cells altered in PI 3-K mediated signaling, and effects on cellular levels of phospho-Akt.

OVCAR3 cells = experiment: MTT cell proliferation/viability assay, OVCAR3 ovarian cancer cells; format: cell-based; settings: Homo sapiens
Description: as §1
Many of these also show similar selective effects on cell growth. Table 2 summarizes the results of two separate cell proliferation experiments for selected compounds of the present invention.

[2] = OVCAR-3, 48 hours, MTT, DMSO alone controls = 100% viability, Trial 1, read-out: Trial 1 OVCAR3 (viability)
[3] = OVCAR-3, 48 hours, MTT, DMSO alone controls = 100% viability, Trial 2, read-out: Trial 2 OVCAR3 (viability)
[4] = OVCAR-3, average of Trial 1 and Trial 2, 48 hours, read-out: average OVCAR-3 (viability)

SMILES	IC50 (PI 3-K alpha)	Anti-proliferative effects on tumor cells altered in PI 3-K/PTEN [1]	IC50 [1]	viability at 1 µM (OVCAR3 cells; [2])	viability at 1 µM (OVCAR3 cells; [3])	viability at 1 µM (OVCAR3 cells; [4])
CC1(C)CC(=O)C2=C(C1)Nc1c(c(C(C)(C)C)nn1C(C)(C)C)C2c1ccc(OCc2ccccc2)c(OCc2ccccc2)c1 (stereo not drawn) [Compound 963985]	0.5 µM	Yes	1 µM			
Cc1ccc(C2C3=C(CC(C)(C)CC3=O)Nc3c2c(C(C)(C)C)nn3-c2ccc(C)cc2)cc1 (stereo not drawn) [Compound 964028, 3-t-butyl-4-(4-methylphenyl)-7,7-dimethyl-1-(4-methylphenyl)-4,7,8,9-tetrahydro-1H-pyrazolo[3,4-b]quinolin-5(6H)-one]	1 µM	Yes	10 µM	42%	45.4%	43.7%
COc1ccc(-n2nc(C(C)(C)C)c3c2NC2=C(C(=O)CC(C)(C)C2)C3c2ccccc2Cl)cc1 (stereo not drawn) [Compound 964076, 3-t-butyl-4-(2-chlorophenyl)-7,7-dimethyl-1-(4-methoxyphenyl)-4,7,8,9-tetrahydro-1H-pyrazolo[3,4-b]quinolin-5(6H)-one]	3 µM	Yes	10 µM	41%	53.2%	47.1%
COc1ccc(OC)c(C2C3=C(CC(C)(C)CC3=O)Nc3c2c(C(C)(C)C)nn3-c2ccc(C)cc2C)c1 (stereo not drawn) [Compound 964232]	5 µM	Yes	< 20 µM	45%	71%	58%
COc1ccccc1C1C2=C(CC(C)(C)CC2=O)Nc2c1c(C(C)(C)C)nn2-c1ccc(Cl)c(C)c1 (stereo not drawn) [Compound 964247]	7 µM	Yes	< 20 µM	42%	43.7%	42.9%
CC1(C)CC(=O)C2=C(C1)Nc1c(c(C(C)(C)C)nn1-c1ccc(Cl)c(Cl)c1)C2c1cccc(OCc2ccccc2)c1 (stereo not drawn) [Compound 964260]	8 µM	Yes	< 20 µM	41%	53%	47%
CC1(C)CC(=O)C2=C(C1)Nc1c(c(-c3ccccc3)nn1-c1cccc(F)c1)C2c1ccc(C(F)(F)F)cc1 (stereo not drawn) [Compound 964661]	8 µM	Yes	< 20 µM	36%	58.9%	47.5%
